Measured values reported in patent publication US10487093B2, “Heterocyclic compounds, in particular 2-oxo-4,4,5,5,6,6,7,7-octahydrobenzoxazole derivatives, and their use as antibacterial compounds” (priority 2016, dated 2019).
Converted amounts (≈) assume the structure as drawn. Where two headings read alike, the source gives them in different places.

What was measured:
Assay type in all cases: cell-based
[1] = system: strains of Parvimonas micra; assay: MIC against anaerobes, agar dilution (CLSI), clinical isolates
[2] = system: strains of Peptostreptococcus anaerobius; assay: as above
[3] = system: strains of Prevotella melaninogenica; assay: as above
[4] = system: Bacteroides fragilis ATCC 25285; assay: MIC against anaerobes, agar dilution (CLSI), reference strain; conditions: ATCC25285, 48 h, read-out: MIC, B. fragilis ATCC 25285
[5] = system: strains of Clostridium perfringens; assay: microbe, parasite or virus in culture
[6] = system: strains of Prevotella bivia; assay: MIC against anaerobes, agar dilution (CLSI), clinical isolates
[7] = system: strains of Bacteroides thetaiotaomicron; assay: microbe, parasite or virus in culture
[8] = system: Bacteroides thetaiotaomicron ATCC 29741; assay: microbe, parasite or virus in culture; conditions: ATCC29741, 48 h, read-out: MIC, B. thetaiotaomicron ATCC

CN[C@H](CC(C)C)C(=O)N[C@H]1C(=O)N[C@@H](CC(N)=O)C(=O)N[C@H]2C(=O)N[C@H]3C(=O)N[C@H](C(=O)N[C@H](C(=O)O)c4cc(O)cc(O)c4-c4cc3ccc4O)[C@H](O)c3ccc(c(Cl)c3)Oc3cc2cc(c3O[C@@H]2O[C@H](CO)[C@@H](O)[C@H](O)[C@H]2O[C@H]2C[C@](C)(N)[C@H](O)[C@H](C)O2)Oc2ccc(cc2Cl)[C@H]1O [VAN, vancomycin, reference compound]
MIC ([1]; Parvimonas micra strain 5): 1 to 4 µg/mL (≈ 0.69 to 2.76 µM) | MIC ([1]; Parvimonas micra strain 6): < 1 µg/mL | MIC ([1]; Parvimonas micra strain 7): 1 to 4 µg/mL (≈ 0.69 to 2.76 µM) | MIC ([1]; Parvimonas micra strain 8): < 1 µg/mL | MIC ([1]; Parvimonas micra strain 9): < 1 µg/mL | MIC ([1]; Parvimonas micra strain 10): < 1 µg/mL | MIC ([1]; Parvimonas micra strain 11): < 1 µg/mL | MIC ([1]; Parvimonas micra strain 12): < 1 µg/mL | MIC ([2]; Peptostreptococcus anaerobius strain 1): < 1 µg/mL | MIC ([2]; Peptostreptococcus anaerobius strain 2): < 1 µg/mL | MIC ([2]; Peptostreptococcus anaerobius strain 3): < 1 µg/mL | MIC ([2]; Peptostreptococcus anaerobius strain 4): > 64 µg/mL | MIC ([2]; Peptostreptococcus anaerobius strain 5): < 1 µg/mL | MIC ([2]; Peptostreptococcus anaerobius strain 6): < 1 µg/mL | MIC ([2]; Peptostreptococcus anaerobius strain 7): < 1 µg/mL | MIC ([2]; Peptostreptococcus anaerobius strain 8): < 1 µg/mL | MIC ([2]; Peptostreptococcus anaerobius strain 9): < 1 µg/mL | MIC ([2]; Peptostreptococcus anaerobius strain 10): < 1 µg/mL | MIC ([3]; Prevotella melaninogenica strain 1): > 64 µg/mL | MIC ([3]; Prevotella melaninogenica strain 2): 4 to 16 µg/mL (≈ 2.76 to 11 µM) | MIC ([3]; Prevotella melaninogenica strain 3): > 64 µg/mL | MIC ([3]; Prevotella melaninogenica strain 4): > 64 µg/mL | MIC ([3]; Prevotella melaninogenica strain 5): 16 to 64 µg/mL (≈ 11 to 44.2 µM) | MIC ([3]; Prevotella melaninogenica strain 6): > 64 µg/mL | MIC ([3]; Prevotella melaninogenica strain 7): 16 to 64 µg/mL (≈ 11 to 44.2 µM) | MIC ([3]; Prevotella melaninogenica strain 8): 4 to 16 µg/mL (≈ 2.76 to 11 µM) | MIC ([3]; Prevotella melaninogenica strain 9): 4 to 16 µg/mL (≈ 2.76 to 11 µM) | MIC ([3]; Prevotella melaninogenica strain 10): > 64 µg/mL | MIC ([3]; Prevotella melaninogenica strain 11): > 64 µg/mL | MIC [4]: 16 to 64 µg/mL (≈ 11 to 44.2 µM) | MIC [5]: < 1 µg/mL | MIC ([6]; Prevotella bivia strain 1): > 64 µg/mL | MIC ([6]; Prevotella bivia strain 2): > 64 µg/mL | MIC ([6]; Prevotella bivia strain 3): 16 to 64 µg/mL (≈ 11 to 44.2 µM) | MIC ([6]; Prevotella bivia strain 4): > 64 µg/mL | MIC ([6]; Prevotella bivia strain 5): > 64 µg/mL | MIC ([6]; Prevotella bivia strain 6): > 64 µg/mL | MIC ([6]; Prevotella bivia strain 7): > 64 µg/mL | MIC ([6]; Prevotella bivia strain 8): 16 to 64 µg/mL (≈ 11 to 44.2 µM) | MIC ([6]; Prevotella bivia strain 9): > 64 µg/mL | MIC ([6]; Prevotella bivia strain 10): 16 to 64 µg/mL (≈ 11 to 44.2 µM) | MIC ([7]; Bacteroides thetaiotaomicron strain 1, read-out: MIC): 16 to 64 µg/mL (≈ 11 to 44.2 µM) | MIC ([7]; Bacteroides thetaiotaomicron strain 2, read-out: MIC): 16 to 64 µg/mL (≈ 11 to 44.2 µM) | MIC ([7]; Bacteroides thetaiotaomicron strain 3, read-out: MIC): 16 to 64 µg/mL (≈ 11 to 44.2 µM) | MIC ([7]; Bacteroides thetaiotaomicron strain 4, read-out: MIC): 16 to 64 µg/mL (≈ 11 to 44.2 µM) | MIC ([7]; Bacteroides thetaiotaomicron strain 5, read-out: MIC): 16 to 64 µg/mL (≈ 11 to 44.2 µM) | MIC ([7]; Bacteroides thetaiotaomicron strain 6, read-out: MIC): 16 to 64 µg/mL (≈ 11 to 44.2 µM) | MIC ([7]; Bacteroides thetaiotaomicron strain 7, read-out: MIC): 16 to 64 µg/mL (≈ 11 to 44.2 µM) | MIC ([7]; Bacteroides thetaiotaomicron strain 8, read-out: MIC): 16 to 64 µg/mL (≈ 11 to 44.2 µM) | MIC ([7]; Bacteroides thetaiotaomicron strain 9, read-out: MIC): < 1 µg/mL | MIC ([7]; Bacteroides thetaiotaomicron strain 10, read-out: MIC): 16 to 64 µg/mL (≈ 11 to 44.2 µM) | MIC ([7]; Bacteroides thetaiotaomicron strain 11, read-out: MIC): 16 to 64 µg/mL (≈ 11 to 44.2 µM) | MIC [8]: 16 to 64 µg/mL (≈ 11 to 44.2 µM)
